Consider 2 compounds from patent publication US10806740B2, “Natural combination hormone replacement formulations and therapies” (TherapeuticsMD, Inc., priority 2012, dated 2020).

Type in all cases: physicochemical
A short description of series [1]: Particle size analysis with Beckman Device (laser diffraction). Conditions: Fraunhofer optical model. On the procedure: Particle size may be determined in any suitable manner. For example, a Beckman Coulter LS 13 320 Laser Diffraction Particle Size Analyzer (the “Beckman Device”) may be used to determine particle size. As described above, particle size may be represented by various metrics, for example, through an X50 particle size, and/or X90 particle size, or similar descriptions of particle size.
For the purposes of this Example, a particle size analysis is conducted by using the Beckman Device. A sample API comprising micronized progesterone in accordance with various embodiments is provided for analysis.
Approximately 0.01 g of a sample API in accordance with various embodiments was combined with Coulter 1B and 10 mL of deionized water. Sonication was performed for 15 seconds. The Beckman Device, equipped with a ULM, performed analysis for 90 seconds. The Beckman Device was configured to use the Fraunhofer optical model. […] The Beckman Device also yielded that the mean particle size is 4.975 μm, the median particle size is 4.279 μm, the mode particle size is 6.453 μm, and the standard deviation is 3.956 μm.
A formulation sample having approximately 200 mg of micronized progesterone and 2 mg of estradiol was dispersed with oil. The Beckman Device, equipped with a MLM, performed analysis for 60 seconds. The Beckman Device was configured to use the Fraunhofer optical model.

The nature of series [2]: Progesterone solubility in solvents. The source says: . Thus, MIGLYOL® may be used in embodiments comprising a suspension of progesterone, though MIGLYOL®, standing alone, is not desirable for use in embodiments having fully solubilized progesterone and/or estradiol.
Series [3] is described as follows: Estradiol solutions after addition of 7% water. An excerpt: In addition to determining physical stability of the estradiol solutions over time, it is necessary to determine if the fill material will be stable during the encapsulation process. One way to test these preparations is with the addition of water to the fill mass. […].
All CAPMUL® PG8 containing formulations turned hazy on the addition of water.

On to `CC(=O)[C@H]1CC[C@H]2[C@@H]3CCC4=CC(=O)CC[C@]4(C)[C@H]3CC[C@]12C` [Progesterone, pregn-4-ene-3,20-dione], for which the X25 particle size in series [1] came out at 1.590 μm. Also, the X50 particle size in series [1] is given as 4.279 μm. In series [1], this compound came in with an X75 particle size of 7.442 μm. The same compound had a mean particle size in series [1] of 4.975 μm. This compound registered a median particle size in series [1] of 4.279 μm. In series [1], this compound had a mode particle size of 6.453 μm. For the same compound, the “Progesterone Solubility” value in series [2] (in CAPMUL MCM) was 73.4 mg/g; in series [2] (in CAPMUL MCM:GELUCIRE 44/14 (6:3)) it was 57.4 mg/g; in series [2] (in CAPMUL MCM:GELUCIRE 44/14 (6:4)), 57.4 mg/g; in series [2] (in CAPMUL MCM:GELUCIRE 44/14 (7:3)), 70.5 mg/g; in series [2] (in CAPMUL MCM:GELUCIRE 44/14 (9:1)) it was 86.4 mg/g; in series [2] (in CAPMUL MCM:GELUCIRE 44/14 (9:1), listed as progesterone) it was “approximately 86 mg/g”. Also, the “Progesterone Solubility” value in series [2] (in CAPMUL MCM, listed as progesterone) is about 73 mg/g; in series [2] (in CAPMUL PG8) it was 95 mg/g; in series [2] (in MIGLYOL 812) it was 27.8 mg/g.
For the compound `C[C@]12CC[C@@H]3c4ccc(O)cc4CC[C@H]3[C@@H]1CC[C@@H]2O` [Estradiol, (17β)-estra-1,3,5(10)-triene-3,17-diol], the “Results after addition of 7% water” value in series [3] (estradiol 6 mg/g in CAPMUL MCM) is “without recrystallization”; in series [3] (estradiol 6 mg/g in MIGLYOL 812:CAPMUL PG8 (75:25)) it was “Precipitated”; in series [3] (estradiol 6 mg/g in Polyethylene Glycol 400) it was “without recrystallization”; in series [3] (estradiol 12 mg/g in CAPMUL MCM), “Clear”; in series [3] (estradiol 12 mg/g in MIGLYOL 812:CAPMUL PG8 (50:50)), “Hazy”; in series [3] (estradiol 12 mg/g in Polyethylene Glycol 400), “clear”. Further, the “Results after addition of 7% water” value in series [3] (estradiol 12 mg/g in TRANSCUTOL:MIGLYOL 812:CAPMUL PG8 (5:47:47)) and in series [3] (estradiol 12 mg/g in TRANSCUTOL:MIGLYOL 812:CAPMUL PG8 (5:65:28)) was “Hazy” throughout.
